Assay results from publication PMC8151276, “An Integrated Approach toward NanoBRET Tracers for Analysis of GPCR Ligand Engagement” (Molecules, 2021).

Tests used:
Assay type in all cases: binding
CXCR1 = target: T1, CXCR1 (Homo sapiens, UniProt P25024); assay: NanoBRET screen HiBiT-CXCR1 in HEK293
T1 construct: purchased Promega (in-house HiBiT-GPCR construct library, NanoBRET)
T1 sequence (P25024 1-350): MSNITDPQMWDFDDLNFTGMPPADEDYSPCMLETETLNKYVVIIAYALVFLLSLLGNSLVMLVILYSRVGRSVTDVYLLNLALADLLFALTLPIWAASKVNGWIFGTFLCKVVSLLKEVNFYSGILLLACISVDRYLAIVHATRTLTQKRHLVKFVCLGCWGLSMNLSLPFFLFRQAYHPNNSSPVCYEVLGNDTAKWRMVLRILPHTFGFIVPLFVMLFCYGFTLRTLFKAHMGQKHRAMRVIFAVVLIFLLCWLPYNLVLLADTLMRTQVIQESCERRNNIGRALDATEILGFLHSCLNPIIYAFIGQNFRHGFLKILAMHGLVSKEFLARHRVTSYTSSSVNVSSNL
Description: (§1) Each tracer candidate was screened across the entire library of HiBiT-GPCR constructs using NanoBRET as the detection modality. As depicted in Figure 4A, the specificity of interactions was evaluated through decrease in BRET due to competitive displacement of a bound tracer by excess parental compound. Each tracer was analyzed for binding to each HiBiT-GPCR fusion in the absence and in the presence of competing parental compound. Briefly, HEK293 cells were transfected with HiBiT-GPCR constructs diluted into promoterless DNA to reduce expression and maximize translocation to the cell surface. Each tracer candidate was then screened at concentrations of 1 μM and 0.1 μM across cells expressing these fusions. Cells were treated for 1.5 h with tracer either alone or in the presence of 20 μM competing parental compound (i.e., control). BRET was measured upon addition of purified LgBiT and subsequent complementation with HiBiT genetically fused to a GPCR. The specificity of interactions was assessed through a decrease in BRET signal due to competitive displacement of the bound tracer. To further gauge the robustness of these interactions, the fold response over the control (i.e., BRETtracer/BRETcontrol) was calculated. We chose a 1.5-fold response, which translates to ≥7-fold signal over noise as the minimal threshold required to score an interaction as positive. […]. Below we highlight the screening results obtained for our exemplary fluorescent tracers based on Clozapine, Amitriptyline and AZD1283.
(§2) HiBiT-GPCR DNA constructs were diluted in 10 mM Tris pH 8 to a final concentration of 0.01 μg/μL, arrayed in 96-well plates and stored at −20 °C. For transfection, HEK293 cells were suspended in Opti-MEM (without phenol red) supplemented with 2% fetal bovine serum (Seradigm) and 100 units/mL penicillin–streptomycin (Gibco) at a final concentration of 220,000 cells/mL and dispensed into white 96-well plates at 90 μL/well. Subsequent transfections and screens were carried using an Agilent Bravo Automated Liquid Handling Platform. First, the 96-well HiBiT DNA arrays were diluted 25-fold in Opti-MEM (without serum or phenol red) to a final concentration of 0.0004 μg/μL and 20 μL of the diluted DNAs were transferred into new 96-well plates. Next, promoterless carrier DNA (1 μg/μL) was diluted 25-fold (0.04 μg/μL) and then dispensed into the diluted arrays at 20 μL/well. Following brief mixing, Viafect transfection reagent (Promega) diluted 16-fold into Opti-MEM was dispensed into the plates at 40 μL/well. After mixing by pipetting, plates were incubated for 10 min on the pipetting station deck. The DNA-transfection reagent complexes were then added to plates containing cells. To facilitate the screen, 10 μL of DNA-transfection reagent complexes were added in duplicates to the top 4 and bottom 4 rows, resulting in two identical 48-well arrays per plate. Plates with transfected cells were incubated for 18–20 h at 37 °C/5% CO2. A screen of each tracer across the entire library using two different concentrations requires duplicate plates of transfected cells. Depending on the number of tracers being screened, transfections can be scaled up using the same ratios. The next day, for each tracer, four 20× screening solutions in tracer dilution buffer (Promega) were prepared: two duplicates at final concentration of 20 μM and two duplicates at a final concentration of 2 μM. A competing unmodified compound was added to one of each duplicate at a final concentration of 400 μM. The four resulting solutions were diluted 4-fold in Opti-MEM without serum or phenol red to generate 5× solutions (5 µM and 0.5 µM tracer +/− 100 μM competing compound). To screen the library, a BioTek MultiFlo FX liquid dispenser was used to dispense 22.5 µL of tracer solution to the top 4 rows and 22.5 µL tracer + competing compound solution to the 4 bottom rows. Plates were briefly mixed on an orbital shaker and incubated for 1.5 h at room temperature. […]

FZD9 = target: T2, FZD9 (Homo sapiens, UniProt O00144); assay: NanoBRET screen HiBiT-FZD9 in HEK293
T2 construct: purchased Promega (in-house HiBiT-GPCR construct library, NanoBRET)
T2 sequence (O00144 23-591): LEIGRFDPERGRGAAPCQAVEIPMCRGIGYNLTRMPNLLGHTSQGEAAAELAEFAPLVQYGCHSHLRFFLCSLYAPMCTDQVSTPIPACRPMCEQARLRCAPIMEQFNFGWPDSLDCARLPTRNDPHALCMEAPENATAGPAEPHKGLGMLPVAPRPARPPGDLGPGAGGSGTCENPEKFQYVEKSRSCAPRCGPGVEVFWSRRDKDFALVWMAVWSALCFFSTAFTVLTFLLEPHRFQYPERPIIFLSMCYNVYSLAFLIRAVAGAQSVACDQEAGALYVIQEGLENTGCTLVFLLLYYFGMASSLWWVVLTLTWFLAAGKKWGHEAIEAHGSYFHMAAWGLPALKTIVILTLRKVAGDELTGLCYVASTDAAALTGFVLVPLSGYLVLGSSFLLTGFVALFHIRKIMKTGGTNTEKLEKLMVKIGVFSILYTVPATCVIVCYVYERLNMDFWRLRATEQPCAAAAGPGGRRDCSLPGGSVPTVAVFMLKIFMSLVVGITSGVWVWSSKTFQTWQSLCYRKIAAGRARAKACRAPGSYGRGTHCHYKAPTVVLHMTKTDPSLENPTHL
Description: as §1, §2

NMUR1 = target: T3, NMUR1 (Homo sapiens, UniProt Q9HB89); assay: NanoBRET screen HiBiT-NMUR1 in HEK293
T3 construct: purchased Promega (in-house HiBiT-GPCR construct library, NanoBRET)
T3 sequence (Q9HB89 1-426): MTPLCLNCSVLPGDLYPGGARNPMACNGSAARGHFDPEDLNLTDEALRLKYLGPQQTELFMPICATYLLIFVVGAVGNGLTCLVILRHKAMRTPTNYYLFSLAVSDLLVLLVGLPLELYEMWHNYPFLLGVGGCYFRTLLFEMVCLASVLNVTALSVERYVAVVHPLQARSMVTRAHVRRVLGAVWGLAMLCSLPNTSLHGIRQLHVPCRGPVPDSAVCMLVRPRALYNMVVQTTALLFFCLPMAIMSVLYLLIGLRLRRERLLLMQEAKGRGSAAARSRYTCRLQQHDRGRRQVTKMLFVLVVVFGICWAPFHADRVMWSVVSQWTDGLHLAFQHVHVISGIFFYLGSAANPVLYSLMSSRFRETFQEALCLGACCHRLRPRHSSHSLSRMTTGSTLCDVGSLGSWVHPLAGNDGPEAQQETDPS
Description: as §1, §2

[1] = tracer at 1μM, listed as amitriptyline-b-2-NB590
[2] = tracer at 0.1μM, listed as amitriptyline-b-2-NB590

Row | Compound | NanoBRET Fold Response (CXCR1; CXCR1, tracer 0.1μM) | NanoBRET Fold Response (CXCR1; CXCR1, tracer 1μM) | NanoBRET Fold Response (FZD9; FZD9, tracer 0.1μM) | NanoBRET Fold Response (FZD9; FZD9, tracer 1μM) | NanoBRET Fold Response (NMUR1; NMUR1, tracer 0.1μM) | NanoBRET Fold Response (NMUR1; NMUR1, tracer 1μM) | also measured
1 | CN1CCN(C2=Nc3cc(Cl)ccc3Nc3ccc(CNC(=O)CCOCCOCCOCCOCCNC(=O)CCc4ccc5n4[B-](F)(F)[N+]4=C(c6ccc[nH]6)C=CC4=C5)cc32)CC1 [Clozapine-b-2-NB590] |  |  |  |  |  |  | NanoBRET Fold Response (CXCR1; CXCR1, 0.1μM tracer): 1.00; NanoBRET Fold Response (CXCR1; CXCR1, 1μM tracer): 0.99; NanoBRET Fold Response (FZD9; FZD9, 0.1μM tracer): 1.02; NanoBRET Fold Response (FZD9; FZD9, 1μM tracer): 1.05; NanoBRET Fold Response (NMUR1; NMUR1, 0.1μM tracer): 0.98; NanoBRET Fold Response (NMUR1; NMUR1, 1μM tracer): 0.94
2 | CN(C)CCC=C1c2ccccc2CCc2ccc(C(=O)NCCNC(=O)CCOCCOCCOCCOCCNC(=O)CCc3ccc4n3[B-](F)(F)[N+]3=C(c5ccc[nH]5)C=CC3=C4)cc21 [Amitriptyline-b-2-NB590] |  |  |  |  |  |  | NanoBRET Fold Response (CXCR1; tracer at 0.1μM): 0.97; NanoBRET Fold Response (CXCR1; [1]): 1.11; NanoBRET Fold Response (FZD9; [2]): 1.04; NanoBRET Fold Response (FZD9; [1]): 1.11; NanoBRET Fold Response (NMUR1; [2]): 1.14; NanoBRET Fold Response (NMUR1; [1]): 1.10
3 | CCOC(=O)c1cc(C#N)c(N2CCC(C(=O)NS(=O)(=O)Cc3ccccc3/C=C/C(=O)NCCNC(=O)CCc3ccc4n3[B-](F)(F)[N+]3=C(c5ccc[nH]5)C=CC3=C4)CC2)nc1C [AZD1283-1-NB590] |  |  |  |  |  |  | NanoBRET Fold Response (CXCR1; CXCR1, 0.1μM): 1.09; NanoBRET Fold Response (CXCR1; CXCR1, 1μM): 1.13; NanoBRET Fold Response (FZD9; FZD9, 0.1μM): 1.05; NanoBRET Fold Response (FZD9; FZD9, 1μM): 1.02; NanoBRET Fold Response (NMUR1; NMUR1, 0.1μM): 1.05; NanoBRET Fold Response (NMUR1; NMUR1, 1μM): 1.04
4 | CC(C)N(CC[C@H](c1ccccc1)c1cc(CCNC(=O)CCOCCOCCOCCOCCNC(=O)CCc2ccc3n2[B-](F)(F)[N+]2=C(c4ccc[nH]4)C=CC2=C3)ccc1O)C(C)C [Tolterodine-2-NB590] | 1.27 | 1.06 | 0.96 | 0.85 | 0.94 | 1.12 | 
5 | CC(C)N(CC[C@H](c1ccccc1)c1cc(CCNC(=O)c2ccc(CNC(=O)CCc3ccc4n3[B-](F)(F)[N+]3=C(c5ccc[nH]5)C=CC3=C4)cc2)ccc1O)C(C)C [Tolterodine-BZ-NB590] | 0.98 | 1.11 | 0.95 | 1.04 | 0.78 | 1.02 | 
6 | O=C(CCOCCOCCOCCOCCNC(=O)CCc1ccc2n1[B-](F)(F)[N+]1=C(c3ccc[nH]3)C=CC1=C2)NCCCN1CCN(C2=Nc3ccccc3Oc3ccc(Cl)cc32)CC1 [Loxapine-a-2-NB590] | 1.02 | 0.94 | 1.00 | 1.07 | 1.02 | 1.21 | 
